Tests used:
Assay in all cases: radiometric filter-binding kinase assay, Kinase HotSpot
Conditions in all cases: compound 0.5 µM; ATP 10 µM
ABL1 (human) = ABL1 (human) (UniProt P00519)
AURKC (human) = AURKC (human) (UniProt Q9UQB9)
BLK (human) = BLK (human) (UniProt P51451)
BMX (human) = BMX (human) (UniProt P51813)
BTK (human) = BTK (human) (UniProt Q06187)
CDK1 CCNB1 (human) = CDK1 CCNB1 (human) (UniProt P06493+P14635)
CDK3 CCNE1 (human) = CDK3 CCNE1 (human) (UniProt Q00526+P24864)
CDK7 CCNH MNAT1 (human) = CDK7 CCNH MNAT1 (human) (UniProt P50613+P51948+P51946)
CSNK1G2 (human) = CSNK1G2 (human) (UniProt P78368)
CSNK1G3 (human) = CSNK1G3 (human) (UniProt Q9Y6M4)
DMPK (human) = DMPK (human) (UniProt Q09013)
DYRK1A (human) = DYRK1A (human) (UniProt Q13627)
DYRK4 (human) = DYRK4 (human) (UniProt Q9NR20)
EPHA1 (human) = EPHA1 (human) (UniProt P21709)
FES (human) = FES (human) (UniProt P07332)
FLT1 (human) = FLT1 (human) (UniProt P17948)
GRK5 (human) = GRK5 (human) (UniProt P34947)
GRK6 (human) = GRK6 (human) (UniProt P43250)
IGF1R (human) = IGF1R (human) (UniProt P08069)
INSRR (human) = INSRR (human) (UniProt P14616)
KDR (human) = KDR (human) (UniProt P35968)
LRRK2 (human) = LRRK2 (human) (UniProt Q5S007)
LTK (human) = LTK (human) (UniProt P29376)
LTK (human), sequence (P29376 whole entry, looked up): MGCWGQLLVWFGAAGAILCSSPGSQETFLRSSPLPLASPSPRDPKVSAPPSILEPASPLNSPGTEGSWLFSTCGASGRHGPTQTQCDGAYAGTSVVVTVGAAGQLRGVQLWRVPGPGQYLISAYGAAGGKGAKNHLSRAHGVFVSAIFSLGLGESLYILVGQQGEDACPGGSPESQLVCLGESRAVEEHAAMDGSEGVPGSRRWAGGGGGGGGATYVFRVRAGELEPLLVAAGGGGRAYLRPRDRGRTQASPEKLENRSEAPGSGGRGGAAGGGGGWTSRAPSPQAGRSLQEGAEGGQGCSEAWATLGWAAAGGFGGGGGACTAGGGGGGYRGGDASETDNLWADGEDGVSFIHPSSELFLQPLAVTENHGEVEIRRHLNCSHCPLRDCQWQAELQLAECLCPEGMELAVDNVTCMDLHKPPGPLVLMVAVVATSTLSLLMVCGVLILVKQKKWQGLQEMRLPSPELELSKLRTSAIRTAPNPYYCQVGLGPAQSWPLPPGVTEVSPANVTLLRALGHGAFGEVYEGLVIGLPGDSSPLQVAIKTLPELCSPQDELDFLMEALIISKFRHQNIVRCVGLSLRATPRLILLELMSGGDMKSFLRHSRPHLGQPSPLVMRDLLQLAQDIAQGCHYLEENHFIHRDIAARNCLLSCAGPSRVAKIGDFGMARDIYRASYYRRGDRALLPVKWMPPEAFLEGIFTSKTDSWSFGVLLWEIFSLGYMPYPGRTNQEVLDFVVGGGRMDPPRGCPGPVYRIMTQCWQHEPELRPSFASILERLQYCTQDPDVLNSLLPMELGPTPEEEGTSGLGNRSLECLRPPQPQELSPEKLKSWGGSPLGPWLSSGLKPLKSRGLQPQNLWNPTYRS

MAP3K5 (human) = MAP3K5 (human) (UniProt Q99683)
MAP3K9 (human) = MAP3K9 (human) (UniProt P80192)
MAP4K4 (human) = MAP4K4 (human) (UniProt O95819)
MAPK8 (human) = MAPK8 (human) (UniProt P45983)
MAPK8 (human), sequence (P45983 whole entry, looked up): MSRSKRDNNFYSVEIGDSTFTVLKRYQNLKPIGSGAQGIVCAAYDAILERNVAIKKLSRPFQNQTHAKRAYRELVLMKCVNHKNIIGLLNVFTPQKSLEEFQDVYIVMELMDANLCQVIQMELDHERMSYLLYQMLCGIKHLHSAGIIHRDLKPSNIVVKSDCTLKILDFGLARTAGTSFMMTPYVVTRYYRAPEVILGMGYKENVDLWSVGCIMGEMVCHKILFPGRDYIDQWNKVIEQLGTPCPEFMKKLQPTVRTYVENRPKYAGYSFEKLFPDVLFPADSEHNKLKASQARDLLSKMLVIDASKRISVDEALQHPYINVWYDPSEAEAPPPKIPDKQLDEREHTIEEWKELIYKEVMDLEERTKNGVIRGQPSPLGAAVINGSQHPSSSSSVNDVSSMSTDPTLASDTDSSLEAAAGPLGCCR

MST4 (human) = MST4 (human) (UniProt Q9P289)
NEK3 (human) = NEK3 (human) (UniProt P51956)
NEK4 (human) = NEK4 (human) (UniProt P51957)
PAK6 (human) = PAK6 (human) (UniProt Q9NQU5)
PAK6 (human), sequence (Q9NQU5 whole entry, looked up): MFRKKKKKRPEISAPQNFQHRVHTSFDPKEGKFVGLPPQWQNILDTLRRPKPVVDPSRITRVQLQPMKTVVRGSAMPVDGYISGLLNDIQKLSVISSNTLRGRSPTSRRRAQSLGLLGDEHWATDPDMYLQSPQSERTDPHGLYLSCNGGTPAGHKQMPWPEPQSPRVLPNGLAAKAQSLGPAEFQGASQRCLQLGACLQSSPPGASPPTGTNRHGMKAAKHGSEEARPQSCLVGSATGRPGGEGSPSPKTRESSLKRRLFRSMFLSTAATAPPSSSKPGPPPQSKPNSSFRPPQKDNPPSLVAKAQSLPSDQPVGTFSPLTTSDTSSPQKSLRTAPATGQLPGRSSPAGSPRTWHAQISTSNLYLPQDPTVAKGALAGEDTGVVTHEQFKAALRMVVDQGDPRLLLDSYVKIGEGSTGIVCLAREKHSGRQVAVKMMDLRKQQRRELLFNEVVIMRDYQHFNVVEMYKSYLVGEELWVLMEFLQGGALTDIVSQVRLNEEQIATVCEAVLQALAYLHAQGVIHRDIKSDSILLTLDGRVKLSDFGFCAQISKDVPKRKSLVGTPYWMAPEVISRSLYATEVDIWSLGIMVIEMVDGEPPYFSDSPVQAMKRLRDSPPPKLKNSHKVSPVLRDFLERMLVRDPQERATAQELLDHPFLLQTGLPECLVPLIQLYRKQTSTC

PIM2 (human) = PIM2 (human) (UniProt Q9P1W9)
PLK2 (human) = PLK2 (human) (UniProt Q9NYY3)
PRKCI (human) = PRKCI (human) (UniProt P41743)
RAF1 (human) = RAF1 (human) (UniProt P04049)
RIPK2 (human) = RIPK2 (human) (UniProt O43353)
ROS1 (human) = ROS1 (human) (UniProt P08922)
RPS6KB1 (human) = RPS6KB1 (human) (UniProt P23443)
SRPK1 (human) = SRPK1 (human) (UniProt Q96SB4)
STK10 (human) = STK10 (human) (UniProt O94804)
TAOK3 (human) = TAOK3 (human) (UniProt Q9H2K8)
TSSK1B (human) = TSSK1B (human) (UniProt Q9BXA7)
TSSK1B (human), sequence (Q9BXA7 whole entry, looked up): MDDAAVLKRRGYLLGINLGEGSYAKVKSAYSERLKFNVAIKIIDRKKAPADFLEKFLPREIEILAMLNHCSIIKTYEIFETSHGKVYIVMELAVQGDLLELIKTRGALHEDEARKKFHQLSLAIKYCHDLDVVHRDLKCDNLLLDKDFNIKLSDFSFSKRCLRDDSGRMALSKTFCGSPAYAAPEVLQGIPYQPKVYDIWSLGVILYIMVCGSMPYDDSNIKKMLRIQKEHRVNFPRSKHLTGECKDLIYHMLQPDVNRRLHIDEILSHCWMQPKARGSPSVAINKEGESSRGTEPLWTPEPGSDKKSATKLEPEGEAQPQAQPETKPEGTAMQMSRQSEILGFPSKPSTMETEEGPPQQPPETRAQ

BMX (human), sequence (P51813 whole entry, looked up): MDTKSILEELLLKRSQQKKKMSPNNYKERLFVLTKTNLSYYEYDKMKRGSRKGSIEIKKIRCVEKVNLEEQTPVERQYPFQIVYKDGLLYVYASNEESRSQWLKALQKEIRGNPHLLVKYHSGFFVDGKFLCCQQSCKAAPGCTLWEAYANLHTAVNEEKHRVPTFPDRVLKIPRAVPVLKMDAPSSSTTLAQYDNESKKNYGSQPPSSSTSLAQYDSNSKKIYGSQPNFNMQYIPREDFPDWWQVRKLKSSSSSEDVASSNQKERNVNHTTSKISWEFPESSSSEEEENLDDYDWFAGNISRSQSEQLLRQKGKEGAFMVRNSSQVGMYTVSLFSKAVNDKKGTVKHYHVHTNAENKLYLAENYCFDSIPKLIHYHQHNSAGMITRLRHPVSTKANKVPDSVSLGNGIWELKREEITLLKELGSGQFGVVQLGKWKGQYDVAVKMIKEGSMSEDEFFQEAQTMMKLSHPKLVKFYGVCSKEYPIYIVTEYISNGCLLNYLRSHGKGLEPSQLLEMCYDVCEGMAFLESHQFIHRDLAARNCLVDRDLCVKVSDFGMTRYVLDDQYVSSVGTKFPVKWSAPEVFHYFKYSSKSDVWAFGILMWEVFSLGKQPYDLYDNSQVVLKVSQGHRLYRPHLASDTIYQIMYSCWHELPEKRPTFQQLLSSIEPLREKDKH
BTK (human), sequence (Q06187 whole entry, looked up): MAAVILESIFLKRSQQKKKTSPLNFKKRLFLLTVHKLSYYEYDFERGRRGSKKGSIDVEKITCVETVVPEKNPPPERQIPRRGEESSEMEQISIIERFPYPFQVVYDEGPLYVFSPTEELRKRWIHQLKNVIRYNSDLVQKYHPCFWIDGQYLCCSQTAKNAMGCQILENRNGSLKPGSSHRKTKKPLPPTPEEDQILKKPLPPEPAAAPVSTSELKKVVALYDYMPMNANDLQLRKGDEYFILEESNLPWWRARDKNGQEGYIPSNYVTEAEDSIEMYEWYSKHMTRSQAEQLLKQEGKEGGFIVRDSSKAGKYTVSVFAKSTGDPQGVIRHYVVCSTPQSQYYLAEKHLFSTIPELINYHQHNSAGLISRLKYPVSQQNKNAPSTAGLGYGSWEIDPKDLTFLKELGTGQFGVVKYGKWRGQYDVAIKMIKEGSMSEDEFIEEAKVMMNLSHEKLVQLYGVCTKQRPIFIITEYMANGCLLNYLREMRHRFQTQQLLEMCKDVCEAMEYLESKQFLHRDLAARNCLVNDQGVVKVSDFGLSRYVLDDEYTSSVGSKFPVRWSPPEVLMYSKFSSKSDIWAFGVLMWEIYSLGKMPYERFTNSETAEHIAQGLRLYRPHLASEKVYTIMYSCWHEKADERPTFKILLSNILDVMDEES
BLK (human), sequence (P51451 whole entry, looked up): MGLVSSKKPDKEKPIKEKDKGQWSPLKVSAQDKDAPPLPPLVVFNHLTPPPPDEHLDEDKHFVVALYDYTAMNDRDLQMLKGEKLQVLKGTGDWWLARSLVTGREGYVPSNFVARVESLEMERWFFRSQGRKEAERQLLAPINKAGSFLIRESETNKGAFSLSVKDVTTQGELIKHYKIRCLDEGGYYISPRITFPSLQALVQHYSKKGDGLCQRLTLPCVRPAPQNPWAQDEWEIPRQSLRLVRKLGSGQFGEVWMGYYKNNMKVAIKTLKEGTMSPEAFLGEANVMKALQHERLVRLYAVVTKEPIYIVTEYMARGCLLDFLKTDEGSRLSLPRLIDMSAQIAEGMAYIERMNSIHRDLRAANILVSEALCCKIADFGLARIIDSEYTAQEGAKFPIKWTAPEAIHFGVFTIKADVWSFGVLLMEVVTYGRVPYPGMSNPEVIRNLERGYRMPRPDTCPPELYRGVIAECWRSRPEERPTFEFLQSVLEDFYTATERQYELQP
CDK1 CCNB1 (human), sequence (P06493 whole entry, looked up): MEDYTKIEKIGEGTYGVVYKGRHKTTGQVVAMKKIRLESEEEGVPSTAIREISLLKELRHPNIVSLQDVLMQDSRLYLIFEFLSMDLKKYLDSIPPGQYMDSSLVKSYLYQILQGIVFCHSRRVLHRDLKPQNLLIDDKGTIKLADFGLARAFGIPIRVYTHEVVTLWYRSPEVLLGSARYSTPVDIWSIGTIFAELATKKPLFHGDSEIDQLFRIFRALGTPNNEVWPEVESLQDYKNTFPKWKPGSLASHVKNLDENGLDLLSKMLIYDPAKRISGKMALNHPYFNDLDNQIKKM
CDK1 CCNB1 (human), sequence (P14635 whole entry, looked up): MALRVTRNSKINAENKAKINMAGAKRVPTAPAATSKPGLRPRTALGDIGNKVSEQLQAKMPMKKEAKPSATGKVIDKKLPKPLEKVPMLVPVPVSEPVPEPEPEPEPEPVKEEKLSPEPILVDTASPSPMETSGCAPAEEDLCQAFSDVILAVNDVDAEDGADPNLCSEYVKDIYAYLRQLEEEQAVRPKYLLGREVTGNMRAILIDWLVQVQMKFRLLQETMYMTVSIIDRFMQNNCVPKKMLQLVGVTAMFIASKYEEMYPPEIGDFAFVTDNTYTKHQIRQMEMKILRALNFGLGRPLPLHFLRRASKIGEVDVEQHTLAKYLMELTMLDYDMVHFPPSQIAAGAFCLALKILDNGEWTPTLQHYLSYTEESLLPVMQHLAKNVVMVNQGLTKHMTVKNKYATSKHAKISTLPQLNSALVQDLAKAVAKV

## Nc1ccc2ncnc(NCCc3ccc(Oc4ccccc4)cc3)c2c1
ABL1 (human)
  residual activity: 89.7%
AURKC (human)
  residual activity: 96%
BLK (human)
  residual activity: 97.1%
BMX (human)
  residual activity: 102%
BTK (human)
  residual activity: 96.8%
CDK1 CCNB1 (human)
  residual activity: 96.3%
CDK3 CCNE1 (human)
  residual activity: 94.8%
CDK7 CCNH MNAT1 (human)
  residual activity: 99.3%
CSNK1G2 (human)
  residual activity: 100%
CSNK1G3 (human)
  residual activity: 96.8%
DMPK (human)
  residual activity: 94.2%
DYRK1A (human)
  residual activity: 101%
DYRK4 (human)
  residual activity: 93.7%
EPHA1 (human)
  residual activity: 86.6%
FES (human)
  residual activity: 99.6%
FLT1 (human)
  residual activity: 96%
GRK5 (human)
  residual activity: 98%
GRK6 (human)
  residual activity: 99.3%
IGF1R (human)
  residual activity: 99.7%
INSRR (human)
  residual activity: 98.7%
KDR (human)
  residual activity: 91.7%
LRRK2 (human)
  residual activity: 98.5%
LTK (human)
  residual activity: 106%
MAP3K5 (human)
  residual activity: 105%
MAP3K9 (human)
  residual activity: 103%
MAP4K4 (human)
  residual activity: 99.2%
MAPK8 (human)
  residual activity: 104%
MST4 (human)
  residual activity: 94.4%
NEK3 (human)
  residual activity: 108%
NEK4 (human)
  residual activity: 97.8%
PAK6 (human)
  residual activity: 105%
PIM2 (human)
  residual activity: 119%
PLK2 (human)
  residual activity: 102%
PRKCI (human)
  residual activity: 103%
RAF1 (human)
  residual activity: 98.2%
RIPK2 (human)
  residual activity: 94.6%
ROS1 (human)
  residual activity: 97.8%
RPS6KB1 (human)
  residual activity: 99.5%
SRPK1 (human)
  residual activity: 99.8%
STK10 (human)
  residual activity: 90.8%
TAOK3 (human)
  residual activity: 102%
TSSK1B (human)
  residual activity: 100%

Reference: the kinase profiling compilation of Christmann-Franck et al. (2016)
